From patent US11660289B2 (Small Pharma Ltd, priority 2020, dated 2023)
Where two headings read alike, the source gives them in different places.

Assays:
[1] = Human liver mitochondrial fraction intrinsic clearance; assay type: in vitro ADME; conditions: 0.5 mg/mL human liver mitochondrial fraction
Method: Human Liver Mitochondrial (HLMt) fractions contain high quantities of MAO enzymes and therefore, provide a useful model system to measure the clearance of MAO substrates.
A series of investigations using HLMts were conducted to assess the effect of MAO on the metabolism of DMT and deuterated DMT analogues in vitro.

[2] = Human hepatocyte stability of D0, D6 and D8 5-MeO-DMT analogues; assay type: in vitro ADME; conditions: cryopreserved pooled human hepatocytes in suspension, cryopreserved pooled human hepatocytes, 0.5×10^6 viable cells/mL, 60 min; for hepatocyte CLint: read-out: Qualified CLint (μL/min/10^6 cells); for half-life: read-out: Qualified t1/2
Method: (§1) Test compounds (5 μM) were incubated with cryopreserved hepatocytes in suspension. Samples were removed at 6 time points over the course of a 60 min experiment and test compounds were analysed by LC-MS/MS.
(§2) The final incubation volume was 500 μL.
(§3) Two control compounds were included with each species. Each compound was incubated for 0, 5, 10, 20, 40 and 60 min at 37° C. The reactions were stopped by transferring incubate into acetonitrile at the appropriate time points, in a 1:3 ratio. The termination plates were centrifuged at 3,000 rpm for 30 min at 4° C. to precipitate the protein.
(§4) Following protein precipitation, the sample supernatants were combined in cassettes of up to 4 compounds, internal standard was added and samples analysed using Cyprotex generic LC-MS/MS conditions.
(§5) From a plot of ln peak area ratio (compound peak area/internal standard peak area) against time, the gradient of the line is determined. Subsequently, half-life (t½) and intrinsic clearance (CLint) were calculated using the equations below:
(§6) Elimination rate constant (k)=(−gradient)
(§7) where V=Incubation volume (μL)/Number of cells

[3] = Rat hepatocyte stability of D0, D6 and D8 5-MeO-DMT analogues; assay type: in vitro ADME; conditions: cryopreserved pooled rat hepatocytes, 0.5×10^6 viable cells/mL, 60 min; for half-life at 1 μM: cryopreserved pooled rat hepatocytes in suspension, read-out: Qualified t1/2; for hepatocyte CLint at 1 μM: read-out: Qualified CLint (μL/min/10^6 cells)
Method: as §1, §2, §3, §4, §5, §6, §7

[4] = in vivo; cited from earlier work
[5] = system: Human hepatocytes; experiment: Human hepatocyte stability of D0, D6 and D8 5-MeO-DMT analogues; assay type: in vitro ADME; conditions: for Fold change from 5-MeO-DMT, CLint / Fold change from 5-MeO-DMT, t1/2: Human hepatocytes; for Qualified CLint (μL/min/10^6 cells) / Qualified t1/2: cryopreserved pooled human hepatocytes, 0.5×10^6 viable cells/mL, 60 min
Method: as §1, §2, §3, §4, §5, §6, §7

[6] = system: Rat hepatocytes; experiment: Rat hepatocyte stability of D0, D6 and D8 5-MeO-DMT analogues; assay type: in vitro ADME; conditions: for Fold change from 5-MeO-DMT, CLint / Fold change from 5-MeO-DMT, t1/2: Rat hepatocytes; for Qualified CLint (μL/min/10^6 cells) / Qualified t1/2: cryopreserved pooled rat hepatocytes, 0.5×10^6 viable cells/mL, 60 min
Method: as §1, §2, §3, §4, §5, §6, §7

[7] = cited from earlier work
[8] = In vivo pharmacokinetic profile after IV and IM dosing in rats
[9] = Human half-life and clearance of DMT calculated from modelled literature data; conditions: in vivo; for clearance: read-out: clearance rate
From the text: DMT is metabolised very quickly in the human body. […] Based on these calculations, we reasoned that DMT is largely metabolised before reaching the human liver.

[10] = system: Human (mixed gender) hepatocytes; experiment: Human hepatocyte intrinsic clearance of DMT and deuterated DMT analogues
Method: Standard final incubation conditions are 1 μM compound in buffer containing nominally ˜0.5 million viable cells/mL, ˜0.9% (v/v) acetonitrile (MeCN) and ˜0.1% (v/v) DMSO (specific assay concentrations outlined above, section 2).
Samples are then centrifuged at 4 oc.

[11] = calculated from modelled data of Timmermann et al.

In the case of `NCc1ccccc1` [Benzylamine, benzylamine], the “Intrinsic Clearance (μL/min/mg protein)” value [1] is reported as 60.0 μL/min/mg protein and the “half-life” value [1] is reported as 23.2 min.

`COc1ccc2[nH]cc(CCN(C)C)c2c1` [Compound 5-MeO-DMT, 5-Methoxy-N,N-dimethyltryptamine] gave a hepatocyte CLint [2] of 104 µL/min/1e6 cells, a half-life [2] of 13.3 min and a half-life at 1 μM [3] of 4.46 min. It also gave a hepatocyte CLint at 1 μM [3] of 312 µL/min/1e6 cells.

In the case of `[2H]C([2H])(c1c[nH]c2ccccc12)C([2H])([2H])N(C)C` [Compound D4DMT, α,α,β,β-tetradeuterio-DMT], the “onset and behaviour disrupting effects compared to equal doses of DMT” value [4] is listed as “shorter time to onset and potentiation of behaviour disrupting effects”.

For `[2H]C([2H])([2H])N(CCc1c[nH]c2ccc(OC)cc12)C([2H])([2H])[2H]` [Compound D6-5MeO-DMT, d6-5-Methoxydimethyltryptamine], the “Fold change from 5-MeO-DMT, CLint” value [5] was 1.2 fold, the “Fold change from 5-MeO-DMT, t1/2” value [5] was 1.2 fold and the “Qualified CLint (μL/min/10^6 cells)” value [5] was 85.7 μL/min/10^6 cells. For the same compound, the “Qualified t1/2” value [5] was 16.2 min, the “Fold change from 5-MeO-DMT, CLint” value [6] was 1.5 fold and the “Fold change from 5-MeO-DMT, t1/2” value [6] was 1.5 fold. For the same compound, the “Qualified CLint (μL/min/10^6 cells)” value [6] was 205.5 μL/min/10^6 cells and the “Qualified t1/2” value [6] was 6.76 min.

In the case of `CNCCc1c[nH]c2ccccc12` [NMT, N-Methyltryptamine], the “duration of “visuals”” value ([7]; smoking, 50-100 mg) is listed as 15 to 30 s.

Compound `O=C(c1ccc(OCCN2CCCCC2)cc1)c1c(-c2ccc(O)cc2)sc2cc(O)ccc12` [Raloxifene] has a hepatocyte CLint [2] of 152 µL/min/1e6 cells, a half-life [2] of 9.13 min and a half-life at 1 μM [3] of 11.1 min. It also gave a hepatocyte CLint at 1 μM [3] of 125 µL/min/1e6 cells.

For `CN(C)CCc1c[nH]c2ccccc12` [SPL026, N,N-dimethyltryptamine], the “Difference in AUC0-inf between male and female groups” value ([8]; rats, 2 mg/kg IV fumarate) is given as “no significant difference”, the duration of action ([7]; in vivo) is given as “under 20 minutes” and the clearance ([9]; based on a 70 kg person) is given as 350 mL/min/kg. The half-life [9, 11] was ~5 min, the clearance [9, 11] was 24500 mL/min and the “Intrinsic Clearance (μL/min/mg protein)” value [1] was 161.0 μL/min/mg protein. For the same compound, the “half-life” value [1] was 8.6 min.

In the case of `[2H]C([2H])([2H])N(CCc1c[nH]c2ccccc12)C([2H])([2H])[2H]` [SPL028vii, N,N-hexadeuterio-dimethyltryptamine], the “Intrinsic clearance of SPL026 minus intrinsic clearance of SPL028vii” value [10] is reported as 2.3 μL/min/million cells.

With `[2H]C([2H])([2H])N(C([2H])([2H])[2H])C([2H])([2H])Cc1c[nH]c2ccccc12` [SPL028viii, α,α,bis-deuterio-N,N-hexadeuterio-dimethyltryptamine] the “Overall exposure compared with DMT (SPL026)” value ([8]; rat plasma, following IV and IM dosing (FIGS. 1 to 3)) was “greater overall exposure”, the “Total systemic exposure (mean AUC0-inf) compared to SPL026” value ([8]; rats, equivalent single IV and IM doses, ANOVA) was “significantly higher total systemic exposure” and the “Cmax compared with DMT (SPL026)” value ([8]; rats, following IM dosing) was “significantly higher”. For the same compound, the “Intrinsic Clearance (μL/min/mg protein)” value [1] was 10.9 μL/min/mg protein.

In the case of `NCCc1c[nH]c2ccc(O)cc12` [Serotonin, serotonin], the “Intrinsic Clearance (μL/min/mg protein)” value [1] is reported as 151.0 μL/min/mg protein and the “half-life” value [1] is reported as 9.2 min.

In the case of “d8-5-Methoxydimethyltryptamine [Compound D8-5MeO-DMT]”, the “Fold change from 5-MeO-DMT, CLint” value [5] is reported as 1.8 fold, the “Fold change from 5-MeO-DMT, t1/2” value [5] is reported as 1.8 fold and the “Qualified CLint (μL/min/10^6 cells)” value [5] is reported as 57.6 μL/min/10^6 cells. The “Qualified t1/2” value [5] was 24.3 min, the “Fold change from 5-MeO-DMT, CLint” value [6] was 1.8 fold and the “Fold change from 5-MeO-DMT, t1/2” value [6] was 1.8 fold. The “Qualified CLint (μL/min/10^6 cells)” value [6] was 176.0 μL/min/10^6 cells and the “Qualified t1/2” value [6] was 7.89 min.
